Laboratory results reported in PMC7076013 (Scientific Reports, 2020).

Experiments:
ovine COX-1 = biological target: T1, ovine COX-1 (Ovis aries, UniProt P05979); assay: COX Fluorescent Inhibitor Screening Assay, COX-1; format: biochemical; settings: ovine COX-1, Cayman kit 700100
T1 construct: purchased Cayman Chemical Item No. 700100 (assay kit)
T1 sequence (P05979 25-600): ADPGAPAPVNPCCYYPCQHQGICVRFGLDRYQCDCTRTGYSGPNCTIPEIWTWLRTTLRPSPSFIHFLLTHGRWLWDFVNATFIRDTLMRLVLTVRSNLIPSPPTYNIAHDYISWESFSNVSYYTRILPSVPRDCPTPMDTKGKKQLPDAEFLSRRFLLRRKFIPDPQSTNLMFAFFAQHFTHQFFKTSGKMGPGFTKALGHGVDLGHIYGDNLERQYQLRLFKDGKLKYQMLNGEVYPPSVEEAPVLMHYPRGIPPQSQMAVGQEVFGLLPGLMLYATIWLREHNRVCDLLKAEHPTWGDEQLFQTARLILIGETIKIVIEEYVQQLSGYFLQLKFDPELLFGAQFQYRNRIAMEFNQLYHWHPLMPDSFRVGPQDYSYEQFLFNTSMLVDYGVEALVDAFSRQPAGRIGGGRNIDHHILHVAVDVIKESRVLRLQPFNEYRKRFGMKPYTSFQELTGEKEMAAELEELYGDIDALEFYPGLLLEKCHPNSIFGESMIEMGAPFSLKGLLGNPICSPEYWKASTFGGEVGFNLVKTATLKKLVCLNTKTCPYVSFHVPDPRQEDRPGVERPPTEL
Description: The synthesized compounds were tested in vitro for their potential to inhibit ovine COX-1 and human recombinant COX-2.
*All compounds were measured with the Cytation 5 plate reader and the "COX Fluorescent Inhibitor […]
chemi cals, USA) " according to the manufacturer's
Error bars indicate standard error mean (SEM) obtained from two measurements at each concentration.
(1 picture or pasted object on this page, not shown here)

518A2, human melanoma [1] = assay: MTT cell viability, 518A2; format: cell-based; settings: 48 h
Description: (§1) Both melanoma and colon cancer are tumor types tightly connected with inflammation, while the expression of COX-2 in the selected cell lines was highly variable. Since a lot of discrepancies were found in the literature concerning the expression of this enzyme[5],[48]–[53], both COX-1 and COX-2 expression was analyzed by Western blot. […] The cells were treated with a wide range of doses of 4a–c, 5, and 6 for 48 h and cell viability was determined by MTT (3-(4,5-dimethylthiazol-2-yl)-2,5-diphenyltetrazolium bromide) and CV (crystal violet) assays. The obtained IC50 values were similar for both assays (Table 1).
(§2) Reagents were obtained from Sigma (St. Louis, MO) unless indicated otherwise. Annexin V - FITC (AnnV) was acquired from Biotium (Hayward, CA) and Apostat from R&D (R&D S ystems, Minneapolis, MN USA). […] After being detached b y tr ypsinization, cells were seeded in defined number as follows: 2.5 × 10^3 cells/well in 96-well plates for viability assessment and 2 × 10^4 cells/well in 24-well plates for flow cytometry. […]
(§3) Committee at IBISS (02- 09/1 6). Cells were counted and seeded in 96-well plates and incubat ed overnight. Before treatment, non- adherent cells were removed. Compounds 4a- c, 5 and 6 were dissolved in DMSO and stored at −20 °C for a m onth. Working solutions were freshl y prepared in 10% FCS-RPMI-1640. Controls were treated with culture medium containing the equivalent […]
(§4) 3.2. Cell viability tests.
(§5) The number of viable cel ls in culture was estimated by the MTT (3-(4,5- dimethylthiazol- 2-yl ) - 2,5- diphenyltetrazolium bromide) and CV (crystal violet) tests. Cells were incubated in the presence of compounds 4a- c, 5 and 6 for 48 h, then the viability was measured as described.4 […]
(§6) The results were ex pressed as a p er centage of a v alue obtained for the untr eated control cells that was arbitrarily set to be 100%. A non- linear regression analysis of obtained results was done b y using Gr aphPad Prism software to calculat e IC50 values. […]

[2] = system: B16, mouse solid melanoma; assay: MTT cell viability, B16; format: cell-based; settings: 48 h
Description: as §1, §2, §3, §4, §5, §6

[3] = system: HCT116, human colon carcinoma; assay: MTT cell viability, HCT116; format: cell-based; settings: 48 h
Description: as §1, §2, §3, §4, §5, §6

[4] = system: CT26CL25, mouse colon carcinoma; assay: MTT cell viability, CT26CL25; format: cell-based; settings: 48 h
Description: as §1, §2, §3, §4, §5, §6

A375, human melanoma = assay: CV (crystal violet) cell viability, A375; format: cell-based; settings: for IC50: 48 h; for Selectivity index A375: IC50 macrophages / IC50 cancer
Description: as §1
as §2, with “cytometry. Peritoneal resident” for “cytometry.”
(§7) for Biolo gical Research “Siniša Stanković” b y peritoneal lav age with an ice- cold phosphate buffer solution (PBS). The handling of animals and protocol for obtaining cells is in agreement with the rules of the European Union and approved by the Institutional Animal Care and Use Committee at IBISS (02- 09/1 6). Cells were counted and seeded in 96-well plates and incubat ed overnight. Before treatment, non- adherent cells were removed. Compounds 4a- c, 5 and 6 were dissolved in DMSO and stored at −20 °C for a m onth. Working solutions were freshl y prepared in 10% FCS-RPMI-1640. Controls were treated with culture medium containing the equivalent […]
as §4, §5, §6

518A2, human melanoma [5] = assay: CV (crystal violet) cell viability, 518A2; format: cell-based; settings: for IC50: 48 h; for Selectivity index 518A2: IC50 macrophages / IC50 cancer
Description: as §1
as §2, with “cytometry. Peritoneal resident” for “cytometry.”
as §7, §4, §5, §6

[6] = system: B16F10, mouse metastatic melanoma; assay: CV (crystal violet) cell viability, B16F10; format: cell-based; settings: for IC50: 48 h; for Selectivity index B16F10: IC50 macrophages / IC50 cancer
Description: as §1
as §2, with “cytometry. Peritoneal resident” for “cytometry.”
as §7, §4, §5, §6

[7] = system: CT26CL25, mouse colon carcinoma; assay: CV (crystal violet) cell viability, CT26CL25; format: cell-based; settings: for IC50: 48 h; for Selectivity index CT26CL25: IC50 macrophages / IC50 cancer
Description: as §1
as §2, with “cytometry. Peritoneal resident” for “cytometry.”
as §7, §4, §5, §6

[8] = system: SW480, human colon carcinoma; assay: CV (crystal violet) cell viability, SW480; format: cell-based; settings: for IC50: 48 h; for Selectivity index SW480: IC50 macrophages / IC50 cancer
Description: as §1
(§8) Reagents were obtained from Sigma (St. Louis, MO) unless indicated otherwise. […]
(§9) S ystems, Minneapolis, MN USA). […] After being detached b y tr ypsinization, cells were seeded in defined number as follows: 2.5 × 10^3 cells/well in 96-well plates for viability assessment and 2 × 10^4 cells/well in 24-well plates for flow cytometry. Peritoneal resident […]
as §7, §4, §5, §6

[9] = system: SW620, human colon carcinoma; assay: CV (crystal violet) cell viability, SW620; format: cell-based; settings: for IC50: 48 h; for Selectivity index SW620: IC50 macrophages / IC50 cancer
Description: as §1, §8, §9, §7, §4, §5, §6

Substance	IC50 (ovine COX-1)	IC50 (518A2, human melanoma [1])	IC50 [2]	IC50 [3]	IC50 [4]	IC50 (A375, human melanoma)	IC50 (518A2, human melanoma [5])	IC50 [6]	IC50 [7]	IC50 [8]	IC50 [9]	Selectivity index A375 (A375, human melanoma)	Selectivity index 518A2 (518A2, human melanoma [5])	Selectivity index B16F10 [6]	Selectivity index CT26CL25 [7]	Selectivity index SW480 [8]	Selectivity index SW620 [9]
4-[4-(methylnitrooxy)phenyl]-3-(1,2-dicarba-closo-dodecaboranyl)furan-2(5 H)-one [Compound 5]	> 100 µM	5.15 ± 0.64 µM	10.1 ± 0.4 µM	8.9 µM	31.4 ± 3.27 µM	4.7 ± 0.3 µM	5.5 ± 0.57 µM	7.65 ± 0.26 µM	29.4 ± 2.12 µM	8.6 ± 0.21 µM	10.8 ± 0.21 µM	7.9	6.7	4.8	1.3	4.3	3.5
R,S-7-(2-oxo-4-(4-sulfamoylphenyl)-2,5-dihydrofuran-3-yl)-7,8-dicarba-nido-dodeca-hydroundecaborate(–1) sodium [Compound 6]	> 100 µM	36.9 ± 0.49 µM	> 50 µM	> 50 µM	> 50 µM	> 50 µM	49.7 ± 0.42 µM	> 50 µM	> 50 µM	> 50 µM	> 50 µM						

More lines, main results first:

IC50 (ovine COX-1)	IC50 (518A2, human melanoma [1])	IC50 [2]	IC50 [3]	IC50 [4]	IC50 (A375, human melanoma)	IC50 (518A2, human melanoma [5])	IC50 [6]	IC50 [7]	IC50 [8]	IC50 [9]	Substance	Selectivity index A375 (A375, human melanoma)	Selectivity index 518A2 (518A2, human melanoma [5])	Selectivity index B16F10 [6]	Selectivity index CT26CL25 [7]	Selectivity index SW480 [8]	Selectivity index SW620 [9]
> 100 µM	18.9 ± 1.63 µM	30.8 ± 2.81 µM	13.5 µM	42.6 ± 3.17 µM	16 ± 1.65 µM	21.4 ± 0.42 µM	25.4 ± 2.41 µM	37.2 ± 2.21 µM	19 ± 1.91 µM	24.8 ± 0.35 µM	4-phenyl-3-(1,2-dicarba-closo-dodecaboranyl)furan-2(5 H)-one [Compound 4a]	3.1	2.3	1.9	1.3	2.6	2.0
> 100 µM	13.8 ± 0.21 µM	18 ± 1.71 µM	42.5 ± 1.42 µM	38.1 ± 0.9 µM	14.1 ± 0.75 µM	14.8 ± 0.92 µM	26.6 ± 2.62 µM	36.1 ± 1.25 µM	35.9 µM	21.8 ± 0.64 µM	4-[4-(methylsulfonyl)phenyl]-3-(1,2-dicarba-closo-dodecaboranyl)furan-2(5H)-one [Compound 4b]	4.7	4.5	2.5	1.8	1.8	3.0
> 100 µM	36.35 ± 0.21 µM	26.1 ± 2.49 µM	22.2 ± 0.95 µM	28.4 ± 2.46 µM	10.5 ± 0.75 µM	41.2 ± 2.12 µM	26.5 ± 2.62 µM	29.2 ± 2.86 µM	26.8 ± 2.81 µM	44.4 ± 1.77 µM	4-[4-(hydroxymethyl)phenyl]-3-(1,2-dicarba-closo-dodecaboranyl)furan-2(5H)-one [Compound 4c]	6.3	1.6	2.5	2.3	2.5	1.5
